From US20030134859A1 (SANKYO COMPANY, LIMITED, priority 2000, published 2003)
pEC50, pIC50: −log10 of the molar value.

Key:
human PPAR γ 2 [1] = target: T1, human PPAR γ 2 (Homo sapiens, UniProt P37231); test: PPAR γ transcriptional activity, luciferase reporter, test compound alone; assay type: cell-based; conditions: concentration indicating Emax/2, MG63 cells transfected with pSG5-hPPARg and pGV-P2-PPRE, 24 hr
T1 construct: expressed in transfected cells; host or cells: human osteosarcoma MG63, transiently co-transfected with pSG5-hPPARg and the reporter pGV-P2-PPRE
T1 sequence (P37231 1-505): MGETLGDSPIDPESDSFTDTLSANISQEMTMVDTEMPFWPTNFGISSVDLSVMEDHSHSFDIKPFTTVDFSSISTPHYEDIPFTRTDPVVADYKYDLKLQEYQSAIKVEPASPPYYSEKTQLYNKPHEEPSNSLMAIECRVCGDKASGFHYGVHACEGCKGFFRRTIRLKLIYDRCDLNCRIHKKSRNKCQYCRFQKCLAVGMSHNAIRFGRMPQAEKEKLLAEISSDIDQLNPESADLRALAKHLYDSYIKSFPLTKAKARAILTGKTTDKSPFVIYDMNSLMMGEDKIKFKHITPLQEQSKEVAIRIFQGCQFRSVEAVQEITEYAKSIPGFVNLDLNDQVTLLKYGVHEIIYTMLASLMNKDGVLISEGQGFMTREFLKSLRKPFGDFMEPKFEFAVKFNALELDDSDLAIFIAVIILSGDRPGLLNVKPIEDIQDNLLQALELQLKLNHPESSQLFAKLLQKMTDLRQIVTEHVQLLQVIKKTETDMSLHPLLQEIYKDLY
How it was run: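 Human osteosarcoma MG63 cells transiently co-transfected with human PPARγ2 expression plasmid and PPRE-luciferase reporter (rat acyl-CoA oxidase promoter element), then exposed 24 h to test compound alone. Luciferase luminescence gave dose-response curves; EC50 is the concentration giving half of the compound's maximal activity (Emax).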

human PPAR γ 2 [2] = target: T1, human PPAR γ 2; test: Inhibitory activity against PPAR γ transcription in the presence of agonist compound A, luciferase reporter; assay type: cell-based; conditions: in the presence of 10 nM compound A (agonist); MG63 cells transfected with pSG5-hPPARg and pGV-P2-PPRE; 24 hr

**Q.** Which results are given for O=C(Nc1ccc(NC(=S)Nc2ccncc2)cc1)c1cc([N+](=O)[O-])ccc1Cl [Example 259, N-[4-[(Pyridin-4-yl)aminothiocarbonylamino]phenyl]-(2-chloro-5-nitrophenyl)carboxamide]?
**A.** pEC50 (human PPAR γ 2 [1]): 9.15; pIC50 (human PPAR γ 2 [2]): 7.51

**Q.** With “N-(Ethoxyphenyl)-(2-chloro-5-nitrophenyl)carboxamide [Example 229]” as the compound, how does the pEC50 (human PPAR γ 2 [1]) read?
**A.** The pEC50 was 6.80.

**Q.** What about the pIC50 (human PPAR γ 2 [2]) of the same compound?
**A.** Its pIC50 is 7.34.

**Q.** How did the pEC50 (human PPAR γ 2 [1]) turn out when “N-[4-(Pyrrolidinylsulfonyl)phenyl]-(2-chloro-5-nitrophenyl)carboxamide [Example 152]” was run?
**A.** Its pEC50 is 8.06.

**Q.** What about the pIC50 (human PPAR γ 2 [2]) of the same compound?
**A.** Its pIC50 is 7.38.
